Experimental findings from patent US8962674B2 (Tokyo Institute of Technology, priority 2006, dated 2015) are described below.

By melting point is commonly meant the temperature of the solid-liquid transition. `O=C(/C=C/c1ccc(O)cc1)CC(=O)/C=C/c1ccc(O)cc1Cl` [CU127, (1E,6E)-1-(2-chloro-4-hydroxyphenyl)-7-(4-hydroxyphenyl)hepta-1,6-diene-3,5-dione] registered a melting point of 131 to 138 °C.
`COc1ccc(/C=C/C(=O)CC(=O)/C=C/c2cc3ccccc3n2C)cc1O` [CU128, (1E,6E)-1-(3-hydroxy-4-methoxyphenyl)-7-(1-methyl-1H-indol-2-yl)hepta-1,6-diene-3,5-dione] had a melting point of 185 to 193 °C.
In turn, `COc1cc(/C=C/C(=O)CC(=O)/C=C/c2ccc(O)cc2Cl)ccc1O` [CU129, (1E,6E)-1-(2-chloro-4-hydroxyphenyl)-7-(4-hydroxy-3-methoxyphenyl)hepta-1,6-diene-3,5-dione] gave a melting point of 185 to 192 °C.
On to `COc1ccc(/C=C/C(=O)CC(=O)/C=C/c2ccc(O)cc2Cl)cc1O` [CU130, (1E,6E)-1-(2-chloro-4-hydroxyphenyl)-7-(3-hydroxy-4-methoxyphenyl)hepta-1,6-diene-3,5-dione], for which the melting point was in the range of 120 to 130 °C.
`COc1cc(/C=C/C(=O)CC(=O)/C=C/c2ccc(O)cc2)cc(OC)c1O` [CU134, (1E,6E)-1-(4-hydroxy-3,5-dimethoxyphenyl)-7-(4-hydroxyphenyl)hepta-1,6-diene-3,5-dione] displayed a melting point of 228 to 233 °C.
The figure for `COc1ccc(/C=C/C(=O)CC(=O)/C=C/c2cc(OC)c(O)c(OC)c2)cc1O` [CU136, (1E,6E)-1-(4-hydroxy-3,5-dimethoxyphenyl)-7-(3-hydroxy-4-methoxyphenyl)hepta-1,6-diene-3,5-dione] is 91 to 95 °C; for `COc1cc(/C=C/C(=O)CC(=O)/C=C/c2ccc(O)cc2)ccc1F` [CU137, (1E,6E)-1-(4-fluoro-3-methoxyphenyl)-7-(4-hydroxyphenyl)hepta-1,6-diene-3,5-dione] it is 136 to 143 °C.
Regarding `COc1cc(/C=C/C(=O)CC(=O)/C=C/c2ccc(F)c(OC)c2)ccc1O` [CU138, (1E,6E)-1-(4-fluoro-3-methoxyphenyl)-7-(4-hydroxy-3-methoxyphenyl)hepta-1,6-diene-3,5-dione], the melting point was in the range of 150 to 155 °C.
With `COc1ccc(/C=C/C(=O)CC(=O)/C=C/c2ccc(F)c(OC)c2)cc1O` [CU139, (1E,6E)-1-(4-fluoro-3-methoxyphenyl)-7-(3-hydroxy-4-methoxyphenyl)hepta-1,6-diene-3,5-dione], the melting point was 145 to 147 °C.
With `COc1cc(/C=C/C(=O)CC(=O)/C=C/c2cc(Cl)cc(Cl)c2)ccc1O` [CU140, (1E,6E)-1-(3,5-dichlorophenyl)-7-(4-hydroxy-3-methoxyphenyl)hepta-1,6-diene-3,5-dione], the melting point lay in the range of 170 to 173 °C.
As to `COc1ccc(/C=C/C(=O)CC(=O)/C=C/c2cc(Cl)cc(Cl)c2)cc1O` [CU141, (1E,6E)-1-(3,5-dichlorophenyl)-7-(3-hydroxy-4-methoxyphenyl)hepta-1,6-diene-3,5-dione], the melting point fell in the range of 176 to 183 °C.
`O=C(/C=C/c1ccc(O)cc1)CC(=O)/C=C/c1ncc[nH]1` [CU143, (1E,6E)-1-(4-hydroxyphenyl)-7-(1H-imidazol-2-yl)hepta-1,6-diene-3,5-dione]: the melting point is 175 to 181 °C.
In the case of `COc1cc(/C=C/C(=O)CC(=O)/C=C/c2ccc(Cl)cc2Cl)ccc1O` [CU144, (1E,6E)-1-(2,4-dichlorophenyl)-7-(4-hydroxy-3-methoxyphenyl)hepta-1,6-diene-3,5-dione], the melting point was in the range of 124 to 130 °C.
As to `COc1cc(/C=C/C(=O)CC(=O)/C=C/c2cc3ccccc3n2C)ccc1O` [CU147, (1E,6E)-1-(4-hydroxy-3-methoxyphenyl)-7-(1-methyl-1H-indol-2-yl)hepta-1,6-diene-3,5-dione], the melting point is 167 to 170 °C.
In turn, `O=C(/C=C/c1ccc(O)cc1)CC(=O)/C=C/c1ccc2ccccc2c1` [CU149, (1E,6E)-1-(4-hydroxyphenyl)-7-(naphthalen-2-yl)hepta-1,6-diene-3,5-dione] came in with a melting point of 225 to 230 °C.
Take `COc1ccc(/C=C/C(=O)CC(=O)/C=C/c2ncc[nH]2)cc1O` [CU151, (1E,6E)-1-(3-hydroxy-4-methoxyphenyl)-7-(1H-imidazol-2-yl)hepta-1,6-diene-3,5-dione]: the melting point fell in the range of 219 to 221 °C.
For `COc1cc(/C=C/C(=O)CC(=O)/C=C/c2ncc[nH]2)ccc1O` [CU152, (1E,6E)-1-(4-hydroxy-3-methoxyphenyl)-7-(1H-imidazol-2-yl)hepta-1,6-diene-3,5-dione], the melting point is 235 to 240 °C.
The result for `COc1cc(/C=C/C(=O)CC(=O)/C=C/c2ccc(N(C)C)cc2OC)ccc1O` [CU154, (1E,6E)-1-(4-dimethylamino-2-methoxyphenyl)-7-(4-hydroxy-3-methoxyphenyl)hepta-1,6-diene-3,5-dione] reads 117 to 119 °C.
`COc1ccc(/C=C/C(=O)CC(=O)/C=C/c2ccc(N(C)C)cc2OC)cc1O` [CU155, (1E,6E)-1-(4-dimethylamino-2-methoxyphenyl)-7-(3-hydroxy-4-methoxyphenyl)hepta-1,6-diene-3,5-dione]: the melting point was 108 to 113 °C.
For `O=C(/C=C/c1ccc(O)cc1)CC(=O)/C=C/c1c[nH]cn1` [CU157, (1E,6E)-1-(4-hydroxyphenyl)-7-(1H-imidazol-4-yl)hepta-1,6-diene-3,5-dione], the melting point was in the range of 168 to 172 °C.
`COc1cccc(/C=C/C(=O)CC(=O)/C=C/c2ccc(O)cc2)c1` [CU158, (1E,6E)-1-(4-hydroxyphenyl)-7-(3-methoxyphenyl)hepta-1,6-diene-3,5-dione] displayed a melting point of 74 to 80 °C.
The result for `COc1ccc(/C=C/C(=O)CC(=O)/C=C/c2ccc(OC)c3ccccc23)cc1O` [CU163, (1E,6E)-1-(3-hydroxy-4-methoxyphenyl)-7-(4-methoxynaphthalen-1-yl)hepta-1,6-diene-3,5-dione] reads 170 to 175 °C; that for `COc1ccc(/C=C/C(=O)CC(=O)/C=C/c2ccc3ccccc3c2)cc1O` [CU165, (1E,6E)-1-(3-hydroxy-4-methoxyphenyl)-7-(naphthalen-2-yl)hepta-1,6-diene-3,5-dione], 193 to 194 °C; that for `COc1ccc2cc(/C=C/C(=O)CC(=O)/C=C/c3ccc(O)cc3)ccc2c1` [CU166, (1E,6E)-1-(4-hydroxyphenyl)-7-(6-methoxynaphthalen-2-yl)hepta-1,6-diene-3,5-dione], 217 to 220 °C.
`COc1ccc(/C=C/C(=O)CC(=O)/C=C/c2ccc(N(C)C)c3ccccc23)cc1O` [CU168, (1E,6E)-1-(4-dimethylaminonaphthalen-1-yl)-7-(3-hydroxy-4-methoxyphenyl)hepta-1,6-diene-3,5-dione]: the melting point fell in the range of 146 to 150 °C.
The figure for `COc1ccc2cc(/C=C/C(=O)CC(=O)/C=C/c3ccc(OC)c(O)c3)ccc2c1` [CU171, (1E,6E)-1-(3-hydroxy-4-methoxyphenyl)-7-(6-methoxynaphthalen-2-yl)hepta-1,6-diene-3,5-dione] is 175 to 181 °C; for `COc1c(O)cccc1/C=C/C(=O)CC(=O)/C=C/c1ccc(O)cc1` [CU174, (1E,6E)-1-(4-hydroxyphenyl)-7-(3-hydroxy-2-methoxyphenyl)hepta-1,6-diene-3,5-dione] it is 165 to 169 °C.
Regarding `COc1cc(/C=C/C(=O)CC(=O)/C=C/c2cc(O)ccc2OC)ccc1O` [CU178, (1E,6E)-1-(4-hydroxy-3-methoxyphenyl)-7-(5-hydroxy-2-methoxyphenyl)hepta-1,6-diene-3,5-dione], the melting point fell in the range of 75 to 80 °C.
The molecule `COc1ccc(/C=C/C(=O)CC(=O)/C=C/c2cc(O)ccc2OC)cc1O` [CU179, (1E,6E)-1-(3-hydroxy-4-methoxyphenyl)-7-(5-hydroxy-2-methoxyphenyl)hepta-1,6-diene-3,5-dione] displayed a melting point of 116 to 120 °C.
The result for `COc1cc(O)cc(/C=C/C(=O)CC(=O)/C=C/c2ccc(O)cc2)c1` [CU180, (1E,6E)-1-(4-hydroxyphenyl)-7-(3-hydroxy-5-methoxyphenyl)hepta-1,6-diene-3,5-dione] reads 161 to 165 °C; that for `COc1cc(O)cc(/C=C/C(=O)CC(=O)/C=C/c2ccc(O)c(OC)c2)c1` [CU181, (1E,6E)-1-(3-hydroxy-5-methoxyphenyl)-7-(4-hydroxy-3-methoxyphenyl)hepta-1,6-diene-3,5-dione], 69 to 75 °C.
With `COc1cc(O)cc(/C=C/C(=O)CC(=O)/C=C/c2ccc(OC)c(O)c2)c1` [CU182, (1E,6E)-1-(3-hydroxy-4-methoxyphenyl)-7-(3-hydroxy-5-methoxyphenyl)hepta-1,6-diene-3,5-dione], the melting point lay in the range of 196 to 200 °C.
Molecule `COc1cc(/C=C/C(=O)CC(=O)/C=C/c2cc(Cl)ccc2Cl)ccc1O` [CU184, (1E,6E)-1-(2,5-dichlorophenyl)-7-(4-hydroxy-3-methoxyphenyl)hepta-1,6-diene-3,5-dione] showed a melting point of 142 to 147 °C.
For `COc1ccc(/C=C/C(=O)CC(=O)/C=C/c2cc(Cl)ccc2Cl)cc1O` [CU185, (1E,6E)-1-(2,5-dichlorophenyl)-7-(3-hydroxy-4-methoxyphenyl)hepta-1,6-diene-3,5-dione], the melting point lay within 140 to 146 °C.
With `COc1cc(/C=C/C(=O)CC(=O)/C=C/c2ccc3[nH]ccc3c2)ccc1O` [CU188, (1E,6E)-1-(4-hydroxy-3-methoxyphenyl)-7-(1H-indol-5-yl)hepta-1,6-diene-3,5-dione], the melting point was in the range of 135 to 138 °C.
On to `COc1ccc(/C=C/C(=O)CC(=O)/C=C/c2ccc3cc[nH]c3c2)cc1O` [CU191, (1E,6E)-1-(3-hydroxy-4-methoxyphenyl)-7-(1H-indol-6-yl)hepta-1,6-diene-3,5-dione], for which the melting point was 197 to 202 °C.
The figure for `COc1cc(/C=C/C(=O)CC(=O)/C=C/c2ccc(N(C)C)cc2[N+](=O)[O-])ccc1O` [CU192, (1E,6E)-1-(4-dimethylamino-2-nitrophenyl)-7-(4-hydroxy-3-methoxyphenyl)hepta-1,6-diene-3,5-dione] is 203 to 210 °C; for `COc1cc(/C=C/C(=O)CC(=O)/C=C/c2ccc(N(C)C)cc2Cl)ccc1O` [CU196, (1E,6E)-1-(2-chloro-4-dimethylaminophenyl)-7-(4-hydroxy-3-methoxyphenyl)hepta-1,6-diene-3,5-dione] it is 113 to 120 °C.
